22 compounds from patent publication US7601746B2 (Shionogi & Co., Ltd., priority 2003, dated 2009) can be followed below.

SMILES strings stand for the structures.

The assay concerns the target T1, human TPO receptor (hTPOR) (Homo sapiens, UniProt P40238).
T1 construct: expressed in transfected cells; host or cells: BaF-B03 (murine IL-3 dependent cell line)
T1 sequence (P40238 26-635): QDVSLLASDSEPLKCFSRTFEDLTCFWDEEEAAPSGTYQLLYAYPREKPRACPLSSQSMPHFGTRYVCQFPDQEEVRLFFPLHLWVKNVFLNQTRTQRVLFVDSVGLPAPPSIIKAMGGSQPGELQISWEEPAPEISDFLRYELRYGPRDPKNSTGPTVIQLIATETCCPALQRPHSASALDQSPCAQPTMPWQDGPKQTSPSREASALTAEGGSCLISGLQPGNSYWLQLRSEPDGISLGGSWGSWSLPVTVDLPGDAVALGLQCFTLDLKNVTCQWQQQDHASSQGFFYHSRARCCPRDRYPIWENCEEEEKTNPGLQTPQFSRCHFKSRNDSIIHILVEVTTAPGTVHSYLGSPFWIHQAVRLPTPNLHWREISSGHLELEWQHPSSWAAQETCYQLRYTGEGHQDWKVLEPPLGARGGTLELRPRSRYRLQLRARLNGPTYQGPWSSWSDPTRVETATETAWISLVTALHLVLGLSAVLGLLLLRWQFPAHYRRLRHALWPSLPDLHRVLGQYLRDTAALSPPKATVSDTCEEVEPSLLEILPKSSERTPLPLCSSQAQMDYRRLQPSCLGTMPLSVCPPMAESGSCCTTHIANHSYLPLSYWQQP
Kind of assay: Thrombopoietic activity: proliferation of TPO dependent BaF/hTPOR cells (WST-1, absorbance at 450 nm). It is filed as cell-based. As to conditions: 20 h + 4 h WST-1, ED50 = half concentration of the concentration showing the maximum thrombopoietic activity, Table 1. From the text:
The TPO dependent BaF/hTPOR cell line which was established by introducing human TPO receptor (hTPOR) into BaF-B03 cells according to Collins et al (J. Cell. Physiol., 137:293-298 (1988)) was used to test the thrombopoietic activity of the present compound. The DNA sequences and encoded peptide sequences for human hTPOR have been described by Vigon et al (Proc. Natl. Acad. Sci. USA, 89:5640-5644 (1992)). TPO dose not have any ability to support proliferation of interlukin-3 dependent parental cell line BaF-B03. BAF/hTPOR cells were maintained in RPMI medium and WEHI-3B conditioned medium as a source of murine interleukin-3 (IL-3). These cells were washed and resuspended in RPMI medium without a source of murine IL-3 and seeded into each well of 96-well microtiter plates at a density of 5×10^4 cells per well in the absence or presence of various concentration of hTPO or the present compound. After incubation at 37° C. for 20 hours in the 5% CO2 incubator, 10% WST-1 reagent (Takara Biomedicals, Japan) was added to each wells and the cells were further incubated for 4 hours. The absorbance at 450 nm was measured. Tables 1 and 2 exemplify the ED50 for tested compounds of the present invention, wherein the ED50 is the half concentration of the concentration showing the maximum thrombopoietic activity.
(In general: Tetrazolium assays rely on reduction of a dye to a coloured formazan, in cell work by metabolically active cells.)
By EC50 is commonly meant the concentration at which the effect is half-maximal. In the case of `CCCCCCCCCCOCc1cccc(-c2csc(NC(=O)c3cc(F)c(C=C(C)C(=O)O)c(F)c3)n2)c1F` [Compound B32, 3-(2,6-difluoro-4-{4-[2-fluoro-3-(n-decyloxymethyl)phenyl]thiazol-2-ylcarbamoyl}phenyl)-2-methylacrylic acid], the 50% effective concentration (EC50) came to 3.03 nM.
For `CCCCCOCc1cccc(-c2csc(NC(=O)c3cc(F)c(C=C(C)C(=O)O)c(F)c3)n2)c1F` [Compound B33, 3-(2,6-difluoro-4-{4-[2-fluoro-3-(n-pentyloxymethyl)phenyl]thiazol-2-ylcarbamoyl}phenyl)-2-methylacrylic acid] the value was 3.33 nM; for `CCCOC(CCC)c1cccc(-c2csc(NC(=O)c3cc(F)c(C=C(C)C(=O)O)c(F)c3)n2)c1F` (stereo not shown) [Compound B34, 3-(2,6-difluoro-4-{4-[2-fluoro-3-(1-n-propyloxybutyl)phenyl]thiazol-2-ylcarbamoyl}phenyl)-2-methylacrylic acid], 0.99 nM; for `CCCCOC(CCC)c1cccc(-c2csc(NC(=O)c3cc(F)c(C=C(C)C(=O)O)c(F)c3)n2)c1F` (stereo not shown) [Compound B35, 3-(4-{4-[3-(1-n-butyloxybutyl)-2-fluorophenyl]thiazol-2-ylcarbamoyl}-2,6-difluorophenyl)-2-methylacrylic acid], 0.77 nM.
For `CCCCCOC(CCC)c1cccc(-c2csc(NC(=O)c3cc(F)c(C=C(C)C(=O)O)c(F)c3)n2)c1F` (stereo not shown) [Compound B36, 3-(2,6-difluoro-4-{4-[2-fluoro-3-(1-n-pentyloxybutyl)phenyl]thiazol-2-ylcarbamoyl}phenyl)-2-methylacrylic acid] the value was 0.63 nM.
In the case of `CCCCOC(CC)c1cccc(-c2csc(NC(=O)c3cc(F)c(C=C(C)C(=O)O)c(F)c3)n2)c1F` (stereo not shown) [Compound B37, 3-(4-{4-[3-(1-n-butyloxypropyl)-2-fluorophenyl]thiazol-2-ylcarbamoyl}-2,6-difluorophenyl)-2-methylacrylic acid], the EC50 was found to be 0.88 nM.
As for `CCCCCCOC(CC)c1cccc(-c2csc(NC(=O)c3cc(F)c(C=C(C)C(=O)O)c(F)c3)n2)c1F` (stereo not shown) [Compound B38, 3-(2,6-difluoro-4-{4-[2-fluoro-3-(1-n-hexyloxypropyl)phenyl]thiazol-2-ylcarbamoyl}phenyl)-2-methylacrylic acid], the EC50 worked out at 0.62 nM.
`CC(=Cc1c(F)cc(C(=O)Nc2nc(-c3cccc(CCCOCCCC(C)C)c3F)cs2)cc1F)C(=O)O` [Compound B39, 3-[2,6-difluoro-4-(4-(2-fluoro-3-[3-(4-methylpentyloxy)propyl]phenyl}thiazol-2-ylcarbamoyl)phenyl]-2-methylacrylic acid]: the EC50 worked out at 1.01 nM.
Turning to `CC(=Cc1c(F)cc(C(=O)Nc2nc(-c3cccc(CCCOCCC(C)(C)C)c3F)cs2)cc1F)C(=O)O` [Compound B40, 3-[2,6-difluoro-4-(4-{3-[3-(3,3-dimethylbutyloxy)propyl]-2-fluorophenyl}thiazol-2-ylcarbamoyl)phenyl]-2-methylacrylic acid], the half-maximal effective concentration (EC50) is 0.88 nM.
With `CCCCC(OCCC)c1cccc(-c2csc(NC(=O)c3cc(F)c(C=C(C)C(=O)O)c(F)c3)n2)c1F` (stereo not shown) [Compound B41, 3-(2,6-difluoro-4-{4-[2-fluoro-3-(1-n-propyloxypentyl)phenyl]thiazol-2-ylcarbamoyl}phenyl)-2-methylacrylic acid] the figure was 0.67 nM; with `CCCCOC(CCCC)c1cccc(-c2csc(NC(=O)c3cc(F)c(C=C(C)C(=O)O)c(F)c3)n2)c1F` (stereo not shown) [Compound B42, 3-(4-{4-[3-(1-n-butyloxypentyl)-2-fluorophenyl]thiazol-2-ylcarbamoyl}-2,6-difluorophenyl]-2-methylacrylic acid], 0.34 nM.
As for `CCC(CC)COCCCc1cccc(-c2csc(NC(=O)c3cc(F)c(C=C(C)C(=O)O)c(F)c3)n2)c1F` [Compound B43, 3-[2,6-difluoro-4-(4-{3-[3-(2-ethylbutyloxy)propyl]-2-fluorophenyl}thiazol-2-ylcarbamoyl}phenyl)-2-methylacrylic acid], the 50% effective concentration (EC50) is 1.65 nM.
With `CC(=Cc1c(F)cc(C(=O)Nc2nc(-c3cccc(CCCOCCC4CCCC4)c3F)cs2)cc1F)C(=O)O` [Compound B44, 3-[4-(4-{3-[3-(2-cyclopentylethyloxy)propyl]-2-fluorophenyl}thiazol-2-ylcarbamoyl}-2,6-difluorophenyl)-2-methylacrylic acid] the figure was 1.27 nM; with `CCCCCOCCCc1cccc(-c2csc(NC(=O)c3cc(F)c(C=C(C)C(=O)O)c(F)c3)n2)c1F` [Compound B45, 3-(2,6-difluoro-4-{4-[2-fluoro-3-(3-n-pentyloxypropyl)phenyl]thiazol-2-ylcarbamoyl}phenyl)-2-methylacrylic acid], 1.36 nM.
As for `CCCCCCOCCCc1cccc(-c2csc(NC(=O)c3cc(F)c(C=C(C)C(=O)O)c(F)c3)n2)c1F` [Compound B46, 3-(2,6-difluoro-4-{4-[2-fluoro-3-(3-n-hexyloxypropyl)phenyl]thiazol-2-ylcarbamoyl}phenyl)-2-methylacrylic acid], the EC50 was found to be 1.28 nM.
For `CCCCCCCCCCC(OC)c1cccc(-c2csc(NC(=O)c3cc(F)c(C=C(C)C(=O)O)c(F)c3)n2)c1F` (stereo not shown) [Compound B47, 3-(2,6-difluoro-4-{4-[2-fluoro-3-(1-methyloxyundecyl)phenyl]thiazol-2-ylcarbamoyl}phenyl)-2-methylacrylic acid] the value was 2.8 nM.
For `CCCCCCCCCCCC(OC)c1cccc(-c2csc(NC(=O)c3cc(F)c(C=C(C)C(=O)O)c(F)c3)n2)c1F` (stereo not shown) [Compound B48, 3-(2,6-difluoro-4-{4-[2-fluoro-3-(1-methyloxydodecyl)phenyl]thiazol-2-ylcarbamoyl}phenyl)-2-methylacrylic acid] the value was 2.23 nM; for `CCCCOCCCc1cccc(-c2csc(NC(=O)c3cc(F)c(C=C(C)C(=O)O)c(F)c3)n2)c1F` [Compound B49, 3-(4-{4-[3-(3-n-butyloxypropyl)-2-fluorophenyl]thiazol-2-ylcarbamoyl}-2,6-difluorophenyl)-2-methylacrylic acid], 1.3 nM.
In the case of `CCCCOC(C)c1cccc(-c2csc(NC(=O)c3cc(F)c(C=C(C)C(=O)O)c(F)c3)n2)c1F` (stereo not shown) [Compound B50, 3-(4-{4-[3-(1-n-butyloxyethyl)-2-fluorophenyl]thiazol-2-ylcarbamoyl}-2,6-difluorophenyl)-2-methylacrylic acid], the EC50 was 0.8 nM.
For `CCCCOCCCC(OCCCC)c1cccc(-c2csc(NC(=O)c3cc(F)c(C=C(C)C(=O)O)c(F)c3)n2)c1F` (stereo not shown) [Compound B51, 3-(4-{4-[3-(1,4-dibutyloxybutyl)-2-fluorophenyl]thiazol-2-ylcarbamoyl}-2,6-difluorophenyl)-2-methylacrylic acid] the value was 0.68 nM; for `CCCCCCOCCC(OC)c1cccc(-c2csc(NC(=O)c3cc(F)c(C=C(C)C(=O)O)c(F)c3)n2)c1F` (stereo not shown) [Compound B52, 3-(2,6-difluoro-4-{4-[2-fluoro-3-(3-n-hexyloxy-1-methyloxyproyl)phenyl]thiazol-2-ylcarbamoyl}phenyl)-2-methylacrylic acid], 1.7 nM; for `CCCCCOCCCC(OC)c1cccc(-c2csc(NC(=O)c3cc(F)c(C=C(C)C(=O)O)c(F)c3)n2)c1F` (stereo not shown) [Compound B53, 3-(2,6-difluoro-4-{4-[2-fluoro-3-(1-methyloxy-4-n-pentyloxybutyl)phenyl]thiazol-2-ylcarbamoyl}phenyl)-2-methylacrylic acid], 1.4 nM.
